Test results from patent US20220170028A1, “NOVEL INTERLEUKIN-2 VARIANTS AND BIFUNCTIONAL FUSION MOLECULES THEREOF” (Cugene Inc, priority 2019, published 2022).
Like-named read-outs stand apart in the source and are kept apart here.

Columns and labels:
[1] = tested on: CD4+/Foxp3+/CD25+ Treg, CD4+/Foxp3-/CD25+ Teff and CD4+/Foxp3-/CD25- naive T cells; assay: STAT5 phosphorylation in three CD4+ T cell subsets (Treg, CD4 effector, CD4 naive), human PBMC; type: cell-based
Excerpt: In addition to being assessed for their ability to differentially stimulate Stat5 phosphorylation in CD4 positive Treg (CD4+/Foxp3+/CD25^high) versus Tconv (CD4+/Foxp3−/CD25^low) cells, two variants, P-0511 and P-0512, were further assayed for their ability to stimulate other effector T and NK cells, including CD4 positive Teff (CD4+/Foxp3-/CD25+), CD8 cytotoxic T effector and NK cells in comparison to wild-type IL-2 (P-0250) and three IL-2 benchmark molecules containing V91K, N88R, N88D respectively.
After human PBMC Cells were treated with serial dilutions of test compounds, fixed and permeabilized, washed, and stained with a mixture of anti-CD25-PE, anti-FOXP3-APC, anti-pSTAT5-FITC, and anti-CD4-PerCP-Cy5.5 antibodies, the flow cytometry analysis was gated into CD4+/Foxp3+/CD25+, CD4+/Foxp3−/CD25+, CD4+/Foxp3−/CD25− groups for the Treg, CD4 effector, and CD4 naive T cell subsets, respectively. Data are expressed as a percent of pStat5 positive cells in gated population and illustrated in FIG. 9.

[2] = tested on: STAT5 phosphorylation in NK cells; assay: STAT5 phosphorylation in CD56+ NK cells, human PBMC; type: cell-based
Excerpt: The Stat5 phosphorylation activity on other responder cells than CD4+ T cell subsets, including CD8+T and NK, by P-0511 was compared to P-0531, the S125I equivalent of wild-type P-0250. […] IL-2 receptors expressed on CD4+ Tconv, CD8+T and NK cells are primarily dimeric IL-2Rs, comprising IL-2R6 and γc.

CD8+ T cells = assay: CD8+ T cell proliferation, CFSE dilution, human PBMC; type: cell-based; settings: 5 or 7 days incubation
Method: Further, P-0511 and P-0512 were tested for their ability to stimulate NK and CD8+ T cells proliferation in comparison with the wild type and benchmark molecules. Intracellular fluorescent label carboxyfluorescein diacetate succinimidyl ester (CFSE) method was utilized. Briefly, human PBMC (1×10^5 cells/well) were labeled with CFSE, plated onto 96-well plates, and incubated with increasing concentrations of different IL-2 compounds. Cells were then harvested after 5 or 7 days of incubation and stained with either anti-CD56-APC antibody for NK cells or anti-CD8-APC antibody for CD8+ T cells; and analyzed by flow cytometry. Data are expressed as a percent of divided cells and illustrated in FIG. 10A for CD8+ T cell proliferation and FIG. 10B for NK cell proliferation.

IL-2Rβ and γc complex = molecular target: T1, IL-2Rβ and γc complex (Homo sapiens, UniProt P14784+P31785); assay: ELISA binding to IL-2Rβ and γc complex
T1 construct: IL-2R6-ECD (NP_000869); γc-ECD (NP_000197)
T1 sequence (P14784 27-240 limits assumed): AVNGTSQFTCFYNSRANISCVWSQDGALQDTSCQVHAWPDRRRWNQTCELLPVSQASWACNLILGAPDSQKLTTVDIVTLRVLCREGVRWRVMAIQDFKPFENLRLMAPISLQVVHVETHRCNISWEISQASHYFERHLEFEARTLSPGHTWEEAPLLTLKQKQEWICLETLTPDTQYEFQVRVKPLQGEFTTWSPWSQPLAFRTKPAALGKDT
T1 sequence (P31785 23-262 limits assumed): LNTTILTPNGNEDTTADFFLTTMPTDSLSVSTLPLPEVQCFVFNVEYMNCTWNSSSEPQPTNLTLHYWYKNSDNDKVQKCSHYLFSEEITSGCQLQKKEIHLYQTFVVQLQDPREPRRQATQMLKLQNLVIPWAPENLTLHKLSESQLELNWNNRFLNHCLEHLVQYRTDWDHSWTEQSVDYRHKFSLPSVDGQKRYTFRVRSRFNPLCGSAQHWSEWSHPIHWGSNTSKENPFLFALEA
Method: Briefly, non-covalent complex of IL-2R6-ECD (NP_000869) and γc-ECD (NP_000197) through heterodimeric Fc chains was coated onto the wells of Nunc Maxisorp 96-well microplates at 2 μg/well. After overnight incubation at 4° C. and blocking with superblock (ThermoFisher), 3-fold serial dilutions of IL-2 Fc fusion proteins starting at either 100 or 270 nM were added to each well at 100 Following a one-hour incubation at room temperature, biotin mouse anti-human IL-2 Ab (BD BioSciences) at 1 μg/ml was added to each well followed by incubation with HRP-Avidin (ThermoFisher) at 1 μg/ml for 1 hour. Wells were thoroughly aspirated and washed three times with PBS/0.05% Tween-20 following each step. Finally, 100 TMB substrate was added to each well; the plate was developed at room temperature in the dark for 10 minutes, and 100 of stop solution (2N Sulfuric acid, Ricca Chemical) was added. Absorbance was determined at 450 nm; curves were fit using Prism software (Graph Pad) and illustrated in FIG. 11E.

Treg cells = assay: Dose-response pharmacodynamics of Treg cells in mice after a single injection (Example 10); type: in vivo, mouse
Method: Following a single subcutaneous administration of vehicle (PBS) or P-0511 (1, 0.3, 0.1, or 0.03 mg/kg) to female Balb/C mice (n=5/group), peripheral blood was collected on day −2 as baseline, and post dose on days 3, 5, and 7. On day 7, mice were sacrificed, and spleens were harvested. Blood lymphocyte phenotyping, proliferation and expansion were measured by flow cytometry at each timepoint using fresh whole blood.

P-0511: IL-2 L19H/S125I/Q126E Fc fusion, SEQ ID NO: 213
pSTAT5 activity profile in Treg, Teff and naive CD4 T cell subsets (in words) [1]: preferential activation of Treg over Teff | pSTAT5 activity profile in Treg, Teff and naive CD4 T cell subsets (in words) ([1]; listed as P-511): superior to both Benchmark-2 and -3 | STAT5 phosphorylation activity in NK cells (in words) [2]: nearly completely abolished | potency in stimulating CD8+ T cell proliferation (in words) (CD8+ T cells): on par with Benchmark-3 | binding to IL-2 dimeric receptor complex, EC50 (IL-2Rβ and γc complex): did not show appreciable binding | proliferation of Treg cells (percentage of Ki67 positive cells) (Treg cells; 0.03 mg/kg single s.c., Balb/C mice): minimal effect | Treg/Tconv ratio at peak, based on cell count (Treg cells; 0.1 mg/kg): 0.06 | Treg as percentage of total lymphocytes at the peak (Treg cells; 0.1 mg/kg single dose): 1.4% | Treg/Tconv ratio at peak, based on cell count (Treg cells; 0.3 mg/kg): 0.18 | Treg as percentage of total lymphocytes at the peak (Treg cells; 0.3 mg/kg single dose): 3.1% | Treg/Tconv ratio at peak, based on cell count (Treg cells; 1 mg/kg): 0.27 | Treg as percentage of total lymphocytes at the peak (Treg cells; 1 mg/kg single dose): 4.5% | proliferation of Treg cells (percentage of Ki67 positive cells) (Treg cells; 1, 0.3, or 0.1 mg/kg single s.c., Balb/C mice): dose-dependent increases | expression of Treg functional markers CD25 and FoxP3 (MFI) (Treg cells; single s.c. dose, Balb/C mice): increased dose-dependently
